Measured values from patent publication US5191079A, “Quinolinecarboxylic acid derivatives” (priority 1990, dated 1993).
In brackets after ≈: the same amount, converted by molar mass. Counter-ions that a name gives are not always drawn.

How the values were obtained:
[1] = test system: Acinetobacter calcoaceticus Ac 54; assay: MIC, Experiment 1; format: cell-based; details: AC54, A. calcoaceticus Ac 54, Gram -, read-out: Min. inhib. concentr. (MIC)
Procedure, shortened: (§1)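 MIC was determined by the Japan Society of Chemotherapy agar dilution method, working from 1000 μg/ml standard solutions (DMSO or water stocks). S. pneumoniae was precultured in brain heart infusion broth and tested on heart infusion agar with 5% defibrinated horse blood. Other strains used sensitivity test broth and sensitivity test agar.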

[2] = test system: Klebsiella pneumoniae PCI-602; assay: MIC, Experiment 1; format: cell-based; details: PCI602, K. pneumoniae PCI-602, Gram -, read-out: Min. inhib. concentr. (MIC)
Procedure, shortened: as §1

[3] = test system: Staphylococcus aureus FDA 209P JC-1; assay: MIC, Experiment 1; format: cell-based; details: FDA209P, S. aureus FDA 209P JC-1, Gram +, read-out: Min. inhib. concentr. (MIC)
Procedure, shortened: (§2)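 Stocks: 5000 μg/ml in DMSO or sterile distilled water; standard: 1000 μg/ml after water dilution. Method: Japan Society of Chemotherapy.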

[4] = test system: Staphylococcus aureus ATCC 9144; assay: MIC, Experiment 1; format: cell-based; details: ATCC9144, S. aureus ATCC 9144, Gram +, read-out: Min. inhib. concentr. (MIC)
Procedure, shortened: as §2

[5] = test system: Staphylococcus aureus FDA 243; assay: MIC, Experiment 1; format: cell-based; details: FDA243, S. aureus FDA 243, Gram +, read-out: Min. inhib. concentr. (MIC)
Procedure, shortened: as §2

[6] = test system: Micrococcus luteus ATCC 9341; assay: MIC, Experiment 1; format: cell-based; details: ATCC9341, M. luteus ATCC 9341, Gram +, read-out: Min. inhib. concentr. (MIC)
Procedure, shortened: as §1

[7] = test system: Streptococcus pneumoniae IID 554; assay: MIC, Experiment 1; format: cell-based; details: IID554, S. pneumoniae IID 554, Gram +, agar with 5% defibrinated horse blood, read-out: Min. inhib. concentr. (MIC)
Procedure, shortened: as §2

[8] = Acute toxicity, Experiment 5; format: in vivo; details: oral, 2000 mg/kg, one week
Procedure: The compound (A) or (B) of the present invention was suspended in distilled water to prepare a suspension in concentration of 200 mg/ml and the compound (C) was suspended in distilled water to prepare a suspension in concentration of 100 mg/ml. The suspension was orally administered to ddY male mice (5 weeks age, weighing 19 to 24 g, 5 mice in each group), which had been fasted for 18 hours, at a rate of 2000 mg/kg body weight of the test compound.

[9] = test system: Staphylococcus aureus IID 803; assay: Effect on treatment of general infectious disease (systemic infection in mice), Experiment 3; format: in vivo, Staphylococcus aureus; ddY male mice; details: for protective effects against infection: Experiment 3, in words; for ED50: Staphylococcus aureus, IID803, 168 h, oral, 1 h after i.p. infection, mice, survival after one week, average of several tests, read-out: 50% effective dose (ED50)
Procedure: Staphylococcus aureus IID 803
The test microorganism was subjected to standing culture in Brain heart infusion broth (manufactured by DIFCO) at 37° C. for 16 to 18 hours. The culture was then diluted with PBS (Dulbecco's phosphate buffered saline) to adjust the concentration of bacteria to 4×10^7 -8×10^7 CFU/ml. The mixture was mixed with an equivalent amount of 10% (w/v) Mucin (BACTO MUCIN BACTERIOLOGICAL, manufactured by Difco Co.) to prepare a bacterial suspension. The thus prepared bacterial suspension (0.5 ml each) was intraperitoneally inoculated to ddY male mice (5 weeks age, weighing 24-27 g, 5 mice in each group), to infect the animals, by which systemic infectious model was prepared.
The mice were daily observed for one week, and from the survival number of mice after one week, the 50% effective dose (ED50) was calculated by Weil method. This test was repeated several times and the average of ED50 was calculated.

CN1Cc2csc3c(C(=O)O)c(=O)c4cc(F)c(N5CCN(C)C(CO)C5)c1c4n23 (centres unmarked) [Compound (I), 9,1-(Methylimino)methano-7-fluoro-8-(3-hydroxymethyl-4-methyl-1-piperazinyl)-5-oxo-5H-thiazolo-[3,2-a]quinoline-4-carboxylic acid hydrochloride]
MIC [1]: 0.1 µg/mL | MIC [2]: 0.025 µg/mL | MIC [3]: 0.2 µg/mL | MIC [4]: 0.1 µg/mL | MIC [5]: 0.1 µg/mL | MIC [6]: 0.39 µg/mL | MIC [7]: 0.05 µg/mL

CN1Cc2csc3c(C(=O)O)c(=O)c4cc(F)c(N5CCOC(CCl)C5)c1c4n23 (centres unmarked) [Compound (D), 9,1-(Methylimino)methano-7-fluoro-8-(2-chloromethylmorpholino)-5-oxo-5H-thiazolo[3,2-a]quinoline-4-carboxylic acid]
MIC [1]: ≤ 0.006 µg/mL | MIC [2]: 0.025 µg/mL (≈ 0.0571 µM) | MIC [3]: 0.013 µg/mL (≈ 0.0297 µM) | MIC [4]: 0.013 µg/mL (≈ 0.0297 µM) | MIC [5]: ≤ 0.006 µg/mL | MIC [6]: 0.05 µg/mL (≈ 0.114 µM) | MIC [7]: 0.05 µg/mL (≈ 0.114 µM)

CCOCC1CN(c2c(F)cc3c(=O)c(C(=O)O)c4scc5n4c3c2N(C)C5)CCO1 (centres unmarked) [Compound (Q), 9,1-(Methylimino)methano-7-fluoro-8-(2-ethoxymethylmorpholino)-5-oxo-5H-thiazolo[3,2-a]quinoline-4-carboxylic acid]
MIC [1]: 0.05 µg/mL (≈ 0.112 µM) | MIC [2]: 0.2 µg/mL (≈ 0.447 µM) | MIC [3]: 0.1 µg/mL (≈ 0.223 µM) | MIC [4]: 0.025 µg/mL (≈ 0.0559 µM) | MIC [5]: 0.05 µg/mL (≈ 0.112 µM) | MIC [6]: 0.39 µg/mL (≈ 0.872 µM) | MIC [7]: 0.39 µg/mL (≈ 0.872 µM)

CC1CN(c2c(F)cc3c(=O)c(C(=O)O)c4scc5n4c3c2N(C)C5)CCO1 (centres unmarked) [Compound (A), 9,1-(Methylimino)methano-7-fluoro-8-(2-methylmorpholino)-5-oxo-5H-thiazolo[3,2-a]quinoline-4-carboxylic acid]
death of mice [8]: no death of mice was observed | MIC [1]: ≤ 0.006 µg/mL | MIC [2]: ≤ 0.006 µg/mL | MIC [3]: 0.013 µg/mL (≈ 0.0322 µM) | MIC [4]: 0.013 µg/mL (≈ 0.0322 µM) | MIC [5]: ≤ 0.006 µg/mL | MIC [6]: 0.1 µg/mL (≈ 0.248 µM) | MIC [7]: 0.05 µg/mL (≈ 0.124 µM) | protective effects against infection [9]: excellent protective effects against infection | ED50 [9]: 3.5 mg/kg

CN1Cc2csc3c(C(=O)O)c(=O)c4cc(F)c(N5CCC(N(C)C)CC5)c1c4n23 [Compound (H), 9,1-(methylimino)methano-7-fluoro-8-(4-dimethylaminopiperidino)-5-oxo-5H-thiazolo[3,2-a]quinoline-4-carboxylic acid]
MIC [1]: 0.1 µg/mL (≈ 0.232 µM) | MIC [2]: 0.025 µg/mL (≈ 0.0581 µM) | MIC [3]: 0.1 µg/mL (≈ 0.232 µM) | MIC [4]: 0.05 µg/mL (≈ 0.116 µM) | MIC [5]: 0.05 µg/mL (≈ 0.116 µM) | MIC [6]: 0.39 µg/mL (≈ 0.906 µM) | MIC [7]: 0.05 µg/mL (≈ 0.116 µM)

COC[C@H]1CN(c2c(F)cc3c(=O)c(C(=O)O)c4scc5n4c3c2N(C)C5)CCO1 [Compound (P), 9,1-(Methylimino)methano-7-fluoro-8-[(2R)-2-methoxymethylmorpholino)-5-oxo-5H-thiazolo[3,2-a]quinoline-4-carboxylic acid]
MIC [1]: 0.013 µg/mL (≈ 0.03 µM) | MIC [2]: 0.025 µg/mL (≈ 0.0577 µM) | MIC [3]: 0.05 µg/mL (≈ 0.115 µM) | MIC [4]: 0.013 µg/mL (≈ 0.03 µM) | MIC [5]: ≤ 0.006 µg/mL | MIC [6]: 0.2 µg/mL (≈ 0.461 µM) | MIC [7]: 0.1 µg/mL (≈ 0.231 µM)

CN1Cc2csc3c(C(=O)O)c(=O)c4cc(F)c(N5CCO[C@@H](CO)C5)c1c4n23 [Compound (N), 9,1-(Methylimino)methano-7-fluoro-8-[(2R)-2-hydroxymethylmorpholino]-5-oxo-5H-thiazolo[3,2-a]quinoline-4-caboxylic acid]
MIC [1]: ≤ 0.006 µg/mL | MIC [2]: ≤ 0.006 µg/mL | MIC [3]: 0.013 µg/mL (≈ 0.031 µM) | MIC [4]: ≤ 0.006 µg/mL | MIC [5]: ≤ 0.006 µg/mL | MIC [6]: 0.1 µg/mL (≈ 0.238 µM) | MIC [7]: 0.05 µg/mL (≈ 0.119 µM)

CN1Cc2csc3c(C(=O)O)c(=O)c4cc(F)c(N5CCC(O)CC5)c1c4n23 [Compound (L), 9,1-(Methylimino)methano-7-fluoro-8-(4-hydroxypiperidino)-5-oxo-5H-thiazolo[3,2-a]quinoline-4-carboxylic acid]
MIC [1]: ≤ 0.006 µg/mL | MIC [2]: ≤ 0.006 µg/mL | MIC [3]: 0.013 µg/mL (≈ 0.0322 µM) | MIC [4]: ≤ 0.006 µg/mL | MIC [5]: ≤ 0.006 µg/mL | MIC [6]: 0.1 µg/mL (≈ 0.248 µM) | MIC [7]: 0.05 µg/mL (≈ 0.124 µM)

CN1Cc2csc3c(C(=O)O)c(=O)c4cc(F)c(N5CCN6CCOC[C@H]6C5)c1c4n23 [Compound (F), 9,1-(Methylimino)methano-7-fluoro-8-[(6R)-1,8-diaza-4-oxabicyclo[4.4.0]deca-8-yl]-5-oxo-5H-thiazolo[3,2-a]quinoline-4-carboxylic acid]
MIC [1]: 0.013 µg/mL (≈ 0.0292 µM) | MIC [2]: 0.013 µg/mL (≈ 0.0292 µM) | MIC [3]: 0.025 µg/mL (≈ 0.0562 µM) | MIC [4]: 0.025 µg/mL (≈ 0.0562 µM) | MIC [5]: 0.013 µg/mL (≈ 0.0292 µM) | MIC [6]: 0.2 µg/mL (≈ 0.45 µM) | MIC [7]: 0.05 µg/mL (≈ 0.112 µM) | protective effects against infection [9]: excellent protective effects against infection | ED50 [9]: 2.3 mg/kg

CN1Cc2csc3c(C(=O)O)c(=O)c4cc(F)c(N5CCO[C@H](CO)C5)c1c4n23 [Compound (M), 9,1-(Methylimino)methano-7-fluoro-8-[ (2S)-2-hydroxymethylmorpholino]-5-oxo-5H-thiazolo[3,2-a]quinoline-4-carboxylic acid]
MIC [1]: ≤ 0.006 µg/mL | MIC [2]: ≤ 0.006 µg/mL | MIC [3]: 0.013 µg/mL (≈ 0.031 µM) | MIC [4]: ≤ 0.006 µg/mL | MIC [5]: ≤ 0.006 µg/mL | MIC [6]: 0.2 µg/mL (≈ 0.477 µM) | MIC [7]: 0.05 µg/mL (≈ 0.119 µM)

CN1CCN(c2c(F)cc3c(=O)c(C(=O)O)c4scc5n4c3c2OC5)CC1 [Compound (Y), 9,1-Epoxymethano-7-fluoro-8-(4-methyl-1-piperazinyl)-5-oxo-5H-thiazolo[3,2-a]quinoline-4-carboxylic acid hydrochloride, reference compound]
MIC [1]: 0.2 µg/mL | MIC [2]: 0.025 µg/mL | MIC [3]: 0.2 µg/mL | MIC [4]: 0.05 µg/mL | MIC [5]: 0.05 µg/mL | MIC [6]: 1.56 µg/mL | MIC [7]: 0.2 µg/mL | ED50 [9]: 10.8 mg/kg

CN1Cc2csc3c(C(=O)O)c(=O)c4cc(F)c(N5CCN(C)C(CF)C5)c1c4n23 (centres unmarked) [Compound (K), 9,1-(methylimino)methano-7-fluoro-8-(3-fluoromethyl-4-methyl-1-piperazinyl)-5-oxo-5H-thiazolo[3,2-a]quinoline-4-carboxylic acid hydrochloride]
MIC [1]: 0.025 µg/mL | MIC [2]: 0.013 µg/mL | MIC [3]: 0.05 µg/mL | MIC [4]: 0.05 µg/mL | MIC [5]: 0.05 µg/mL | MIC [6]: 0.39 µg/mL | MIC [7]: 0.1 µg/mL

CN1Cc2csc3c(C(=O)O)c(=O)c4cc(F)c(N5CCC(=O)CC5)c1c4n23 [Compound (G), 9,1-(Methylimino)methano-7-fluoro-8-(4-oxopiperidino)-5-oxo-5H-thiazolo[3,2-a]quinoline-4-carboxylic acid]
MIC [1]: ≤ 0.006 µg/mL | MIC [2]: ≤ 0.006 µg/mL | MIC [3]: 0.013 µg/mL (≈ 0.0324 µM) | MIC [4]: ≤ 0.006 µg/mL | MIC [5]: ≤ 0.006 µg/mL | MIC [6]: 0.05 µg/mL (≈ 0.125 µM) | MIC [7]: 0.025 µg/mL (≈ 0.0623 µM)

COCC1CN(c2c(F)cc3c(=O)c(C(=O)O)c4scc5n4c3c2N(C)C5)CCN1C (centres unmarked) [Compound (J), 9,1-(Methylimino)methano-7-fluoro-8-(3-methoxymethyl-4-methyl-1-piperazinyl)-5-oxo-5H-thiazolo[3,2-a]quinoline-4-carboxylic acid hydrochloride]
MIC [1]: 0.1 µg/mL | MIC [2]: 0.05 µg/mL | MIC [3]: 0.05 µg/mL | MIC [4]: 0.1 µg/mL | MIC [5]: 0.05 µg/mL | MIC [6]: 0.39 µg/mL | MIC [7]: 0.1 µg/mL | protective effects against infection [9]: excellent protective effects against infection | ED50 [9]: 4.4 mg/kg

COC[C@@H]1CN(c2c(F)cc3c(=O)c(C(=O)O)c4scc5n4c3c2N(C)C5)CCO1 [Compound (O), 9,1-(Methylimino)methano-7-fluoro-8-[(2S)-2-methoxymethylmorpholino)-5-oxo-5H-thiazolo[3,2-a]quinoline-4-carboxylic acid]
MIC [1]: 0.013 µg/mL (≈ 0.03 µM) | MIC [2]: 0.013 µg/mL (≈ 0.03 µM) | MIC [3]: 0.025 µg/mL (≈ 0.0577 µM) | MIC [4]: 0.025 µg/mL (≈ 0.0577 µM) | MIC [5]: ≤ 0.006 µg/mL | MIC [6]: 0.1 µg/mL (≈ 0.231 µM) | MIC [7]: 0.05 µg/mL (≈ 0.115 µM)
